Laboratory results taken from US4582821A, “Inhibition of cyclic nucleotide independent protein kinases” (E. I. Du Pont de Nemours and Company, priority 1983, dated 1986).

Tested on: lymphoma cell line MOLT-4
Assay: Tumor cell line growth inhibition, MOLT-4
Assay type: cell-based
Experimental: In this series of experiments, the tumor cell growth inhibitory capacity of various peptide halomethyl ketones was tested against lymphoma cell lines YAC-1 and MOLT-4, and against an erythroleukemia cell line, K-562. The lymphoma cell line YAC-1 is described by Kiessling, et al., Eur. J. Immunol. 5:112 (1975), and MOLT-4 is described by Minowada, et al., J. Natl. Cancer Inst. 49:891 (1972) and Nilsson, et al., Int. J. Cancer 15:321 (1975). The erythroleukemia cell line K-562 is described by Lozzio, et al., Leuk. Res. 3:363 (1979). In these experiments, cells were grown on standard media as 10 mL suspension cultures. Initial cell density was 10^5 cells/mL. At day 0, test compounds were introduced in ethanol; control cultures received an equal volume of ethanol. Cells were counted at the times indicated.

## CC(C)CC(NC(=O)OC(C)(C)C)C(=O)CBr (stereo not drawn) [Boc-LeuCH2 Br]
0.4 μg/mL, day 2
  % Growth Relative to Control Cultures: 66%
0.4 μg/mL, day 3
  % Growth Relative to Control Cultures: 84%
0.4 μg/mL, day 4
  % Growth Relative to Control Cultures: 67%
2.0 μg/mL, day 2
  % Growth Relative to Control Cultures: 29%
2.0 μg/mL, day 3
  % Growth Relative to Control Cultures: 31%
2.0 μg/mL, day 4
  % Growth Relative to Control Cultures: 21%
2.0 μg/mL, day 7
  % Growth Relative to Control Cultures: 74%
10. μg/mL, day 1
  % Growth Relative to Control Cultures: 49%
10. μg/mL, day 2
  % Growth Relative to Control Cultures: 16%
10. μg/mL, day 3
  % Growth Relative to Control Cultures: 14%
10. μg/mL, day 4
  % Growth Relative to Control Cultures: 9%
10. μg/mL, day 7
  % Growth Relative to Control Cultures: 14%
